Assay results as given in patent publication US20160376240A1, “6 Phenyl or 6 Pyridin 3 YL Indazole Derivatives and Methods of Use” (ABBVIE INC., priority 2014, published 2016).

Tests used:
[1] = biological target: T1, TrkA (Homo sapiens, UniProt P04629); assay: TrkA kinase inhibition, HTRF assay; type: biochemical; settings: LCK peptide substrate 125 nM, TrkA 2-10 nM pre-incubated with ATP 200 μM
T1 construct: purchased Invitrogen PV3144
Method in brief: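 TrkA (2-10 nM) preactivated 20 min with 200 μM ATP in HEPES pH 7.4 with Mg2+/Mn2+, then compound for 10 min, then 125 nM biotinylated LCK-peptide for 1 h at ambient temperature. HTRF 665/620 ratio read; IC50 fitted from initial-rate percent inhibition.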

[2] = biological target: T2, TrkB (Homo sapiens, UniProt Q16620); assay: TrkB kinase inhibition, HTRF assay; type: biochemical; settings: LCK peptide substrate, assay ATP concentration targeted 5 μM
T2 construct: purchased Invitrogen PV3616
Description: (§1) TrkA, TrkB, and TrkC enzymes were obtained from Invitrogen (as catalog numbers PV3144, PV3616, and PV3617, respectively). The ability of a compound to inhibit the enzymatic activity of the TrkA, TrkB, and TrkC enzymes was determined in separate assays. Enzyme activity was measured in an HTRF® (homogeneous time resolved fluorescence) assay, which detects enzymatic phosphorylation of a biotinylated synthetic peptide substrate (an LCK peptide analog, biotin-ahx-GAEEEIYAAFFA, from Genemed Synthesis). Phosphorylation is assessed by HTRF® in the presence of an anti-phosphotyrosine antibody conjugated to Eu^3+ cryptate (Cisbio) as donor fluorophore, and streptavidin conjugated to allophycocyanin (ProZyme) as acceptor fluorophore. The HTRF® signal was detected at two different wavelengths (620 nm and 665 nm) which were used to calculate the fluorescence ratio.
(§2) Each enzyme was titrated to a concentration optimized to ensure accurate measurement of the initial reaction rate. To allow the Trk enzymes to undergo activation and auto-phosphorylation, a 20 minute pre-incubation with ATP was carried out (at twice the final targeted enzyme and ATP concentration) prior to addition of test compound and the peptide substrate.
(§3) TrkA in vitro assays were performed by pre-incubating TrkA (2-10 nM) with ATP (200 μM) for 20 minutes at ambient temperature in 50 mM HEPES pH 7.4, 10 mM MgCl2, 2 mM MnCl2, 100 μM Na3VO4, 1 mM dithiothreitol, 0.01% BSA (bovine serum albumin). Then, to the activated Trk enzyme mixture was added the test compound in 2% dimethyl sulfoxide. After 10 minutes, the peptide substrate (125 nM) was added. After 1 hour, enzyme reactions were terminated by addition of equal reaction volumes of detection/stop reagent (containing 0.2 μg/mL anti-phosphotyrosine monoclonal antibody labeled with europium from Cisbio (catalog# PT66-K), and 4 μg/mL PhycoLink® Streptavidin-Allophycocyanin conjugate from ProZyme (catalog# PJ25S) in 60 mM EDTA in 40 mM HEPES pH 7.4, 480 mM KF, 0.01% Tween® 20 and 0.1% BSA bovine serum albumin) Reaction plates were stored at 4° C. overnight before reading the fluorescence ratio signal on a PerkinElmer EnVision™ fluorescence detector. Individual reaction wells were stopped at time points to obtain reaction rates. The test inhibitor compounds were assayed in duplicate, at half-log serial dilutions over a range of concentrations (e.g. starting at 50 μM or 5 μM as the high compound concentration). The percent Trk enzyme inhibition was calculated from the initial rates of the inhibited reactions relative to the uninhibited control. IC50 values were calculated by fitting the inhibition percent to the concentration of inhibitor [I] in the assay in equation 1 below, to solve for the IC50.
(§4) Inhibition %=100[I]/([I]+[IC50]) equation 1
(§5) The TrkB and TrkC in vitro assays were performed as described above, except that for these enzymes the assay ATP concentration targeted was 5 μM.

[3] = test system: rat model of mono-iodoacetic acid induced osteoarthritis pain; assay: Osteoarthritis pain model, hind limb grip force in MIA-treated rats; type: in vivo; settings: mean percent effect, ***p<0.001 vs vehicle-treated animals
Description: Members of the TrkA inhibitors described above were tested and found effective in reducing osteoarthritis pain. The compounds tested were assessed in an in vivo model well known to those skilled in the art, the rat model of mono-iodoacetic acid induced osteoarthritis pain. A general review of various models of pain can be found in Joshi and Honore, Expert Opinion in Drug Discovery (2004) 1, pp. 323-334, and in the book ‘Drug Discovery and Evaluation, 2nd edition (H. Gerhard Vogel, editor; Springer-Verlag, New York, 2002; pp. 702-706).
Pain behavior was assessed by measurement of hind limb grip force (GF) in adult osteoarthritic rats. Male Sprague Dawley rats, generally weighing 125-150 g, were injected in the unilateral knee join with a single intra-articular injection of sodium monoiodoacetate (MIA). Rats were tested at 21-28 days following MIA injection. A behavioral measure of activity-induced pain was carried out. Measurements of the peak hind limb grip force were conducted by recording the maximum compressive force (CFmax), in grams of force, exerted on a hind limb strain gauge setup, in a commercially available grip force measurement system (Columbus Instruments, Columbus, Ohio).
During testing, each rat was gently restrained by grasping it around its rib cage and then allowed to grasp the wire mesh frame attached to the strain gauge. The experimenter then moved the animal in a rostral-to-caudal direction until the grip was broken. Each rat was sequentially tested twice at an approximately 2-3 minute interval to obtain a raw mean grip force (CFmax). This raw mean grip force data was in turn converted to a maximum hindlimb cumulative compressive force (CFmax), as the grams of force/kg of body weight, for each animal.
For evaluating the compound effects, the hind limb grip force testing in the MIA-treated rats was conducted generally 30-60 minutes after dosing with the test compound. A group of age-matched nave (not injected with MIA) animals was added as a comparator to the drug-dosed groups. The vehicle control response for each group of MIA-treated animals was defined as the 0% response (0% effect), whereas the nave control group was defined as the normal response and as 100% effect. The % effect=(Treatment CFmax−Vehicle CFmax)/Vehicle CFmax]×100). Higher % effect numbers indicate increased relief from the pain in the model, with 100% indicating a return to the level of response seen in normal (non-osteoarthritic) animals. All experiments evaluating drug effects in this model were conducted in a randomized blinded fashion.
Male Sprague Dawley rats (generally 250-300 g body weight at the time of testing) obtained from Charles River Laboratories (Wilmington, Mass.) were used for all experiments, unless indicated otherwise. […]

[4] = biological target: T3, TrkC (Homo sapiens, UniProt Q16288); assay: TrkC kinase inhibition, HTRF assay; type: biochemical; settings: LCK peptide substrate, assay ATP concentration targeted 5 μM
T3 construct: purchased Invitrogen PV3617
Description: as §1, §2, §3, §4, §5

T1 sequence (P04629 33-796): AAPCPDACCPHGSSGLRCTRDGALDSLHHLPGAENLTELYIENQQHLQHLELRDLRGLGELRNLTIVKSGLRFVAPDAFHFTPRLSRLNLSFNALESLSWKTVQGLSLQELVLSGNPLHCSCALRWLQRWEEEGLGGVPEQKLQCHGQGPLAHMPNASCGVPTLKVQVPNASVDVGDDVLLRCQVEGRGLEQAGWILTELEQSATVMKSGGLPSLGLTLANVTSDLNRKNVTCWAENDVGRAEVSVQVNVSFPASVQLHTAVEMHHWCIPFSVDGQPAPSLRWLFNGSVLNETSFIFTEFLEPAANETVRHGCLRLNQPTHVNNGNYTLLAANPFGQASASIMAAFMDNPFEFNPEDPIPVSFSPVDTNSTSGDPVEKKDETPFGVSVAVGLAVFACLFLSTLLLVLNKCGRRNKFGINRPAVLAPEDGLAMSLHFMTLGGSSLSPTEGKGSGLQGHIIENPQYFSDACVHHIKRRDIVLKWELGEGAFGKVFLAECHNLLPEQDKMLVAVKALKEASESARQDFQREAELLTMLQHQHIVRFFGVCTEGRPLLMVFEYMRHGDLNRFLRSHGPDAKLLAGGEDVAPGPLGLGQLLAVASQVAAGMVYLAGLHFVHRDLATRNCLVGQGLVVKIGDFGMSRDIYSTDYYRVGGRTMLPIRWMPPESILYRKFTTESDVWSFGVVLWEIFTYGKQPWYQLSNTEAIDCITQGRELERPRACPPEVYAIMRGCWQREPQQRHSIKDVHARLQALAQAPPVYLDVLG
T2 sequence (Q16620 32-822): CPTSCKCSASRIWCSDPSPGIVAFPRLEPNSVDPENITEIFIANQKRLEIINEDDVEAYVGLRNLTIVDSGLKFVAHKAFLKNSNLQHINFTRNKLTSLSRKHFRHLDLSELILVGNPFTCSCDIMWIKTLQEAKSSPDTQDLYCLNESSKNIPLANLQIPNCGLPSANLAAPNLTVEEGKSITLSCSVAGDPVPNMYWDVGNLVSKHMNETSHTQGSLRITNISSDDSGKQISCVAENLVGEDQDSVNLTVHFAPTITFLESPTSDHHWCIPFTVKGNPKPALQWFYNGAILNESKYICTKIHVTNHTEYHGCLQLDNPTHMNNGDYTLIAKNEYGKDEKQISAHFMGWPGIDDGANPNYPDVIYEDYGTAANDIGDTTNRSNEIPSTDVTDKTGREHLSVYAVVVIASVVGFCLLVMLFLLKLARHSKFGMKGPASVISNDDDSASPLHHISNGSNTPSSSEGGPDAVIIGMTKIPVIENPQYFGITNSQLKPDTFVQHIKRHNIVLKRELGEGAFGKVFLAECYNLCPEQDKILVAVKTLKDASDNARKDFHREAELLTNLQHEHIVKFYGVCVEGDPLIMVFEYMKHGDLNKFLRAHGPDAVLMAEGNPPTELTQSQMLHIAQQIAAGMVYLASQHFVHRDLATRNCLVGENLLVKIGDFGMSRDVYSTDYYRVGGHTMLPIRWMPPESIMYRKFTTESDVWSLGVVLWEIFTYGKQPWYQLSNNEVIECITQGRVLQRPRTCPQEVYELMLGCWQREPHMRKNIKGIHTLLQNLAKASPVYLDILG
T3 sequence (Q16288 32-839): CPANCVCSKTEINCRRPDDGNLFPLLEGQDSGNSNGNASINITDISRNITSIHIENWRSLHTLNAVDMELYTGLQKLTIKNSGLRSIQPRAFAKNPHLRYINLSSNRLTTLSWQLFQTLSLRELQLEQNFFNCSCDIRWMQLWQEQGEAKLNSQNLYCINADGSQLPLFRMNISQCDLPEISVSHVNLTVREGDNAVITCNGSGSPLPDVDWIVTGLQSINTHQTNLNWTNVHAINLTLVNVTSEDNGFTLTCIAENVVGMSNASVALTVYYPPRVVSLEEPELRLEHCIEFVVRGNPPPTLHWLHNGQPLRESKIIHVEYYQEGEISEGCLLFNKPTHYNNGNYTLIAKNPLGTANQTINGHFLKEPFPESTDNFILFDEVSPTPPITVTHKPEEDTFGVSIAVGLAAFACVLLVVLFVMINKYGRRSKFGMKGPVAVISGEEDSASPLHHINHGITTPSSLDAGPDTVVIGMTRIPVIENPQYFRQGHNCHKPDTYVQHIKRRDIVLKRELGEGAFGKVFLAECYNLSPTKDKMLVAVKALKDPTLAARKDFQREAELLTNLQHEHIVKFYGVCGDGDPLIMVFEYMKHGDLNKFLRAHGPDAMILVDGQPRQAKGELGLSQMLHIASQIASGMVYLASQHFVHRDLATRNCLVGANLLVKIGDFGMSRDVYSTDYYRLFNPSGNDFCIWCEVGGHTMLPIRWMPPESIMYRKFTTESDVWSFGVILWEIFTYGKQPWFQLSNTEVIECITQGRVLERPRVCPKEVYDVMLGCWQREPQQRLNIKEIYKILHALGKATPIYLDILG

SMILES | IC50 [1] [nM] | IC50 [2] [nM] | IC50 [4] [nM] | % Effect ([3]; dose 30 mg/kg p.o.) [%***] | % Effect ([3]; dose 100 mg/kg p.o.) [%***]
CNC(=O)c1ccc(-c2cc(OC3CCOCC3)c3c(N)n[nH]c3c2)cc1N1CCN(CC(F)(F)F)CC1 [Example 108, 4-[3-amino-4-(tetrahydro-2H-pyran-4-yloxy)-1H-indazol-6-yl]-N-methyl-2-[4-(2,2,2-trifluoroethyl)piperazin-1-yl]benzamide] | 30.5 | 41.3 | 52.2 | 73 | 
CNC(=O)c1ccc(-c2cc(OC3CCOCC3)c3c(N)n[nH]c3c2)cc1N1CCN(C2CCCCC2)CC1 [Example 29, 4-[3-amino-4-(tetrahydro-2H-pyran-4-yloxy)-1H-indazol-6-yl]-2-(4-cyclohexylpiperazin-1-yl)-N-methylbenzamide] | 97.9 | 46 | 55.9 |  | 77
CC(=O)N1CCN(c2cc(-c3cc(OC4CCCC4)c4c(N)n[nH]c4c3)ccc2C(N)=O)CC1 [Example 77, 2-(4-acetylpiperazin-1-yl)-4-[3-amino-4-(cyclopentyloxy)-1H-indazol-6-yl]benzamide] | 51.1 | 84.4 | 158 |  | 

More lines, main results first:

IC50 [1] [nM] | IC50 [2] [nM] | IC50 [4] [nM] | SMILES | % Effect ([3]; dose 30 mg/kg p.o.) [%***] | % Effect ([3]; dose 100 mg/kg p.o.) [%***]
4.74 |  |  | CNC(=O)c1ccc(-c2cc(OC3CCOCC3)c3c(N)n[nH]c3c2)cc1N1CCN(c2ncc(F)cn2)CC1 [Example 113, 4-[3-amino-4-(tetrahydro-2H-pyran-4-yloxy)-1H-indazol-6-yl]-2-[4-(5-fluoropyrimidin-2-yl)piperazin-1-yl]-N-methylbenzamide] | 89 | 
7.98 | 3.2 | 5.11 | CNC(=O)c1ccc(-c2cc(OC3CCOCC3)c3c(C)n[nH]c3c2)cc1N1CCN(C(=O)OC(C)C)CC1 [Example 125, isopropyl 4-{2-(methylcarbamoyl)-5-[3-methyl-4-(tetrahydro-2H-pyran-4-yloxy)-1H-indazol-6-yl]phenyl}piperazine-1-carboxylate] | 85 | 
